Drawing on PubChem BioAssay (NCI), this text covers TGI for 17 compounds.

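Grown in 96-well plates, cells were treated for 48 hours with each compound at five concentrations. Insufficient inhibition: endpoint recorded as highest concentration tested. Definition used: TGI = concentration required for complete inhibition of growth.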

Test systems include 786-0 renal; CCRF-CEM leukemia; HCC-2998 colon; HCT-116 colon; HOP-62 NSCLC; HT29 colon; MDA-MB-231 breast; SNB-75 CNS; UACC-257 melanoma.
Holding throughout (assay): inhibition of tumour cell growth, NCI panel, 48 h

Regarding `CC(C(O)c1ccccc1)[N+](=O)[O-]` (configuration not stated), the TGI in the test with 786-0 renal was > 100 µM; in the test with CCRF-CEM leukemia, > 100 µM; with HCC-2998 colon, 30.5 µM; in the test with HCT-116 colon, > 100 µM; with HOP-62 NSCLC it was > 100 µM; in the test with HT29 colon, 71.8 µM. In addition, the TGI in the test with MDA-MB-231 breast is 59.2 µM; with SNB-75 CNS, > 100 µM; in the test on UACC-257 melanoma, 31.7 µM.

Take `C=CC[C@@]1(C#N)C[C@H](C[C@]2(C#N)C[C@H](CCl)OC(C)(C)O2)OC(C)(C)O1`: the TGI in the test on 786-0 renal, in the test with CCRF-CEM leukemia, in the test on HCC-2998 colon, in the test on HCT-116 colon, with HOP-62 NSCLC and in the test on HT29 colon was > 100 µM in each case. Further, the TGI in the test with SNB-75 CNS and in the test on UACC-257 melanoma was > 100 µM throughout.

For `CC1=NN(C(=O)c2ccccc2)C(=O)C1N=Nc1ccccc1C(=O)O` (configuration not stated), the TGI in the test with CCRF-CEM leukemia is > 50.7 µM; in the test on HCC-2998 colon, > 70.6 µM; in the test with HCT-116 colon it was > 100 µM; with HOP-62 NSCLC it was > 100 µM; in the test with HT29 colon, > 100 µM; in the test on SNB-75 CNS it was > 20.7 µM.

Take `COc1ccc(CCNC(=S)/N=C\C2=C(O)c3ccccc3C2=O)cc1OC`: the TGI in the test with 786-0 renal, in the test on CCRF-CEM leukemia, in the test with HCC-2998 colon, in the test with HCT-116 colon, in the test with HOP-62 NSCLC and in the test on HT29 colon was > 100 µM each time. For the same compound, the TGI in the test on MDA-MB-231 breast, in the test on SNB-75 CNS and in the test on UACC-257 melanoma was > 100 µM throughout.

With `O=C(/C=C/c1ccsc1)c1ccc(Cl)s1`, the TGI in the test on CCRF-CEM leukemia was 63.9 µM; with HCC-2998 colon, > 100 µM; with HCT-116 colon, 60.5 µM; in the test with HOP-62 NSCLC, > 100 µM; in the test with HT29 colon, > 100 µM; with MDA-MB-231 breast it was > 100 µM. For the same compound, the TGI in the test with SNB-75 CNS and in the test with UACC-257 melanoma was > 100 µM each time.

For `CN1CCN(c2ccc3nc(-c4ccc5nc(-c6ccc(N(C)CCCl)cc6)[nH]c5c4)[nH]c3c2)CC1`, the TGI turned out to be 1.11 µM with 786-0 renal; 0.647 µM in the test on CCRF-CEM leukemia; 1.88 µM with HCC-2998 colon; 14.4 µM in the test on HCT-116 colon; 0.645 µM with HOP-62 NSCLC; 0.675 µM in the test on HT29 colon. The TGI with MDA-MB-231 breast turned out to be 22.3 µM; in the test with SNB-75 CNS it was 0.897 µM; with UACC-257 melanoma, 3.34 µM.

Turning to `CCOC(=O)CC(=Nc1cc(C)on1)N(CC)CC`, the TGI with 786-0 renal, in the test with CCRF-CEM leukemia, with HCT-116 colon, with HOP-62 NSCLC, in the test with HT29 colon and in the test on SNB-75 CNS was > 100 µM in each case.

In the case of `O=S(=O)(Nc1nc(-c2cc(O)c(O)c(O)c2)cs1)c1ccc(Cl)cc1Cl`, the TGI in the test on 786-0 renal was found to be 46.2 µM; in the test on CCRF-CEM leukemia, 41.5 µM; in the test with HCT-116 colon, 40.1 µM; with HOP-62 NSCLC it was 35.1 µM; in the test on HT29 colon, 51.2 µM; with MDA-MB-231 breast, 44.9 µM. In addition, the figures for the TGI in the test on SNB-75 CNS and in the test on UACC-257 melanoma were 77.6 µM and 67.7 µM, respectively.

As to `CCCCCCCCCCOC1C(C(C)OCCCN(C)C)OC2OC3(CCCCC3)OC21` (configuration not stated), the TGI came to 30.9 µM in the test on 786-0 renal; 25.4 µM in the test on CCRF-CEM leukemia; 29.3 µM in the test on HCC-2998 colon; 26.4 µM with HCT-116 colon; 31.4 µM with HOP-62 NSCLC; 11 µM in the test on HT29 colon. Besides, the TGI in the test on MDA-MB-231 breast amounted to 29.8 µM; in the test on SNB-75 CNS, 20.1 µM; in the test on UACC-257 melanoma it was 35.5 µM.

Regarding `COc1ccc2c(c1)Cc1c-2[nH]c2cc3c(cc2c1=O)OCO3`, the TGI in the test on 786-0 renal is > 100 µM; in the test with CCRF-CEM leukemia, 39.1 µM; with HCC-2998 colon it was 51 µM; in the test with HCT-116 colon it was 23.2 µM; in the test on HOP-62 NSCLC it was 45.1 µM; with HT29 colon, 19.9 µM.

On to `COC(=O)C[C@](O)(CCC(C)(C)O)C(=O)O[C@@H]1C(OC)=C[C@]23CCCN2CCc2cc4c(cc2[C@H]13)OCO4`, for which the TGI with HCC-2998 colon turned out to be 0.0855 µM; with HCT-116 colon, 0.15 µM; with HOP-62 NSCLC, 0.59 µM; with HT29 colon, 1.06 µM; in the test with SNB-75 CNS it was 0.95 µM; in the test with UACC-257 melanoma, 0.537 µM.

With `C[n+]1c(-c2ccc(/C=N/Nc3n[nH]c(=S)n3N/N=C/c3ccc(-c4cn5ccccc5[n+]4C)cc3)cc2)cn2ccccc21`, the TGI in the test with 786-0 renal, in the test on CCRF-CEM leukemia, with HCC-2998 colon, in the test on HCT-116 colon, in the test with HOP-62 NSCLC and in the test with HT29 colon was > 100 µM in each case. Besides, the TGI in the test with MDA-MB-231 breast, with SNB-75 CNS and in the test with UACC-257 melanoma was > 100 µM in each case.

Consider `CN(C)C(=S)/N=c1\ssc(=S)n1Cc1ccccn1`, for which the TGI in the test with 786-0 renal was 29.1 µM; with CCRF-CEM leukemia, > 26.2 µM; in the test on HCC-2998 colon, > 100 µM; with HCT-116 colon it was > 100 µM; in the test on HOP-62 NSCLC, > 100 µM; with HT29 colon, > 100 µM. Further, the figures for the TGI in the test with SNB-75 CNS and in the test with UACC-257 melanoma were > 56.6 µM and > 100 µM, respectively.

As for `CCOC(=O)C1CCn2c(nc3c(=O)n(C)c(=O)n(C)c32)S1` (configuration not stated), the TGI in the test with CCRF-CEM leukemia, in the test with HCT-116 colon, in the test with HOP-62 NSCLC, in the test on HT29 colon, in the test with SNB-75 CNS and in the test with UACC-257 melanoma was > 100 µM in each case.

For the compound `Cc1ccc(C(=O)NC(C)C)cc1N=NN(C)C`, the TGI in the test on 786-0 renal, in the test on HCC-2998 colon, in the test on HCT-116 colon, in the test with HOP-62 NSCLC, with HT29 colon and in the test on UACC-257 melanoma was > 100 µM in each case.

In the case of `COc1ccc(CCN2CCOCC2)cc1`, the TGI in the test on 786-0 renal, in the test with CCRF-CEM leukemia, with HCC-2998 colon, with HCT-116 colon, in the test on HOP-62 NSCLC and with HT29 colon was > 100 µM throughout. The TGI in the test on MDA-MB-231 breast and in the test on UACC-257 melanoma was > 100 µM each time.

Turning to `Cc1cc(C)c(N)c(C)c1N`, the TGI in the test on 786-0 renal, in the test on CCRF-CEM leukemia, with HCC-2998 colon, in the test on HCT-116 colon, in the test on HOP-62 NSCLC and in the test with UACC-257 melanoma was > 100 µM each time.
